Usually Ki stands for the dissociation constant of the complex between target and ligand, obtained from inhibition or displacement. For orientation: IC50 means the concentration at which inhibition is half-maximal. The half-life is the time in which the quantity being followed falls by half.

“And” between values parts separate entries of the source, which are not always exact repeats. Identical values can stand only once. Like-named read-outs stand apart in the source and are kept apart here. Some results are limits rather than exact numbers.

Results on twelve substances are retold here after US6127337A, “Bivalent thrombin inhibitors” (National Research Council of Canada, priority 1993, dated 2000).

The target in series [1] is T1, human thrombin (Homo sapiens, UniProt P00734).
T1 construct: Human α-thrombin (3,000 NIH units/mg); purchased Sigma
As to the kind of experiment: Inhibition of amidolytic activity of human thrombin (fluorogenic, Tos-Gly-Pro-Arg-AMC), Ki. Format: biochemical. The method, then:
Materials. The chromogenic and fluorogenic substrates Tosyl-Gly-Pro-Arg-pNAand Tos-Gly-Pro-Arg-AMC were purchased from Boehringer Manheim and Sigma, respectively. […] Initial velocities were recorded at several inhibitor concentrations and kinetic parameters were determined by fitting the data to a general equation describing enzyme inhibition (Segel, 1975). The data were analyzed using the non-linear regression program RNLIN in the IMSL library (IMSL, 1987) on a microVAX™ 3500 computer. […] Fluorogenic assays were conducted using the same conditions and instrument as above operating in the fluorescence mode in the ratio (λex =383 nm, λem =455 nm) Fluorescence intensities were calibrated with 7-amino-4-methyl coumarin solution of known concentration
Determination of Thrombin Inhibitory Dissociation Constants KI
The steady-state velocity was then measured for a few minutes. The compounds of this invention were also pre-incubated with thrombin for 20 min at room temperature before adding the substrate. […] The kinetic data (the steady-state velocity at various concentrations of the substrate and the inhibitors) of the competitive inhibition was analyzed using the methods described by Segel (1975). A non-linear regression program, RNLIN in the IMSL library (IMSL, 1987), LMDER in MINPACK library (More et al., 1980) or Microsoft™ Excell™, was used to estimate the kinetic parameters (Km Vmax and Ki). The biological data are reported on tables I-V.

For series [2], the target named is T1, human thrombin. As to the kind of experiment: Fibrin clotting assay. Format: biochemical. The text has this:
Abbreviations. The following abbreviations have been used in the specification: Abu, γ-aminobutyric acid; Ac, acetyl; Aca, ε-aminocaproic acid; Aca*, 8-aminocapylic acid; Acha, 1-aminocyclohexane-carboxylic acid; Ada, 12-aminododecanoic acid; AMC, 7-amino-4-methylcoumarin; Aua, 11-aminoundecanoic acid; Ava, δ-aminovaleric acid; Bal, β-alanine; Boc, tert-butyloxycarbonyl; BrBzs, 4-bromobenzenesulfonyl; Bzs, benzene sulfonyl; Cha, β-cyclohexylalanine; Fmoc, 9-fluorenylmethoxycarbonyl;FRE, fibrinogen recognition exo site; HPLC, high performance liquid chromatography; MD805, (2R,4R)-4-methyl-1-[N^α -(3-methyl-1,2,3,4-tetrahydro-8-quinolinesulphonyl-glycyl)-L-arginyl]-2-piperidine carboxylic acid; NAPAP, N^α (2-naphtyl-sulphonyl)-D,L-p-amidinophenylalanyl-piperidide; Nas, naphtylsulfonyl; Nle, norleucine; 3-TAPAP, N^α -(4-toluene-sulphonyl)-D,L-p-amidinophenylalanyl-piperidide; OBzl, benzylester; Pip, pipecolic acid; PPACK, D-Phe-Pro-Arg chloromethylketone; tBbs, 4-tert-butylbenzenesulfonyl; Tic, 1,2,3,4-tetrahydroisoquinoline-3-carboxylic acid; TipBs, 2,4,6 triisopropylbenzenesulfonyl; TFA, trifluoroacetic acid; Tos, tosyl; Tris, 2-amino-2-(hydroxymethyl)-1,3-propanediol. All amino acid residues are L-configuration unless otherwise indicated. IC50 is defined as the inhibitor concentration required to double the clotting time relative to the control; means of three determinants ±SEM.
The fibrin clotting assay was performed in 50 mM Tris HCl buffer (pH 7.52 at 37° C.) containing 0.1 M NaCl and 0.1% poly(ethylene glycol) 8000 with 9.0×10^-10 M (0.1 NIH unit/mL) and 0.03% (w/v) of the final concentrations of human thrombin and bovine fibrinogen, respectively, as reported elsewhere (Szewczuk et al., 1992). The clotting time was plotted against the inhibitor concentrations and the IC50 was estimated as the inhibitor concentration required to double the clotting time relative to the control.

The subject of series [3] is carotid injury-induced thrombosis. As to the kind of experiment: FeCl3 induced arterial injury model (carotid injury-induced thrombosis). Format: in vivo. As to conditions: rat; for Dose to double occlusion time: control occlusion time 19 ± 1 min; for Dose to achieve patency at 60 min.: patency defined by no drop in vessel temperature. The method, then:
[…]: Rat, male, Sprague-Dawley. Weight: 375-450 g The FeCl3 induced arterial injury model assays were conducted according to Kurz, K. D., Main, […]., Thrombosis research 60; 269-280, 1990 and Schumacher, W. A. et al. J. pharmacology and experimental therapeutics 267; 1237-1242, 1993. Male, Sprague-Dawley (375-450 g) are anesthetized with Urethane (1500 mg/kg IP). Animals are laid on a heating pad which is maintained at 37° C. The carotid artery is approached through a midline cervical incision. Carefully blunt dissection is used to expose and isolate the vessel from the carotid sheath. Using forceps, the artery is lifted to provide clearance to insert two small polyethylene tubing (PE-205) underneath it. The temperature probe (Physitemp MT23/3 )TM is placed between the PE-205 and the artery. The vessel temperature is monitored for 60 minutes after application of FeCl3. Vessel temperature changes are recorded on a thermister (Cole-Palmer Model 08533-41). Injury is induced by application of a small disc (3 mm dia.) of WhatmanTM No.1 filter paper previously dipped in a 35% solution of FeCl3 on the carotid artery above the temperature probe. The site of the experiment is covered with in Aluminum foil in order to protect the FeCl3 from degradation by light. […] Before the start of the experiment, one blood sample is drawn (1 ml) in a tube of 0.105M buffered citrate solution (from the eye's sinus) and the animal is exsanguinated at the end. All the samples are kept on ice and centrifuged as soon as possible at 2000 Rpm for 10 min., 4° C. The plasma is analyzed in duplicate for activated partial thromboplastin time on a haemostasis analyzer (STAGO ST4TM). From a group of four animals, two arteries are stored at -80C for further analysis.

For series [4] the following is noted: given intravenously or subcutaneously, depending on the species; cited from earlier work.
Setting [5] is: Table V, concentration to double the clotting time, read-out: IC50 (dtt).
Where [6] appears, read: Table I, active site directed inhibitors, human thrombin 6.0×10^-11 M, substrate 1-8×10^-5 M, read-out: Ki.
The mark [7] stands for this setting: Table I, inhibitor concentration required to double the clotting time, means of three ±SEM, read-out: IC50.

On to “2,4,6 triisopropylbenzensulfonyl-Arg (D-Pipecolic acid)-(12-aminododecanoicacid)-4-aminobutyric acid)-Asp-Phe-Glu-Pro-Ile-Pro-Tyr-OH [BCH-2444]”, for which, in series [1] (Table V, read-out: Ki), the inhibition constant (Ki) was 5.5 nM. For the same substance, the half-maximal inhibitory concentration (IC50) in series [2] (setting [5]) amounted to 55 nM.

Take “Dansyl-Arg-(D-Pipecolic acid)-NH2 [Peptide P429]”: the inhibition constant (Ki) in series [1] (setting [6]) was determined as 158 ± 57 nM. Besides, the 50% inhibitory concentration (IC50) in series [2] (setting [7]) came to 430 ± 130 nM.

Turning to “4-bromobenzenesulfonyl-Arg (D-Pipecolic acid)-(12-aminododecanoic acid)-4-aminobutyric acid)- Asp-Phe-Glu-Pro-Ile-Pro-Tyr-OH [BCH-2733]”, the Ki in series [1] (Table V, read-out: Ki) stood at 0.8 nM. Further, the Ki in series [1] (read-out: Ki value) was < 1 nM and 0.8 nM. Also, the IC50 in series [2] (setting [5]) amounted to 4.1 nM. Besides, in series [3], the “Dose to double occlusion time” value is reported as more than 2 mg/kg i.v. bolus and the “Dose to achieve patency at 60 min.” value is recorded as more than 2 mg/kg i.v. bolus.

As to “Dansyl-Arg-(D-Pipecolic acid)-Abu-NH2 [Peptide P431]”, the inhibitory constant (Ki) in series [1] (setting [6]) stood at 980 ± 130 nM. Moreover, the IC50 in series [2] (setting [7]) was found to be 2580 ± 680 nM.

In the case of “tert-butylbezenesulfonyl-Arg (D-Pipecolic acid)-(12-aminododecanoic acid)-4-aminobutyric acid)-Asp-Phe-Glu-Pro-Ile-Pro-Tyr-OH [BCH-2736]”, in series [1] (Table V, read-out: Ki), the inhibition constant Ki was determined as 270 nM. Besides, the IC50 in series [2] (setting [5]) worked out at 1100 nM. In series [3], the “Dose to double occlusion time” value amounted to 4 mg/kg i.v. bolus and the “Dose to achieve patency at 60 min.” value is recorded as more than 4 mg/kg i.v. bolus.

Turning to “β-naphthyl sulfonyl-arginyl D-pipecolic acid-(12-aminododecanoic acid)-4-aminobutyric acid)-Asp-Tyr-Glu-Pro-Ile-Pro-Glu-Glu-Ala-(L-β-cyclohexylalanine)-(D- Glu)-OH [Peptide P551]”, the Ki in series [1] (Table IV, results from assay no. 1, read-out: Ki) was 0.0033 ± 0.00016 nM. Further, the Ki in series [1] (Table IV, results from assay no. 2, read-out: Ki) was 0.0042 ± 0.0002 nM. In series [3], the “Dose to double occlusion time” value is 0.5-1 mg/kg i.v. bolus and the “Dose to achieve patency at 60 min.” value was 1-2 mg/kg i.v. bolus.

As for “β-naphthyl sulfonyl-Arg-(D-Pipecolic acid)-(12-aminododecanoic acid)-4-aminobutyric acid)-Asp-Phe-Glu-Glu-Ile-Pro-Glu-Glu-Tyr-Leu-Gln-OH [Peptide P532]”, the inhibition constant Ki in series [1] (Table II, various active site inhibitor segments, human thrombin 3.0×10^-11 M, read-out: Ki) stood at 0.024 ± 0.004 nM. In series [3], the “Dose to double occlusion time” value is 0.5-1 mg/kg i.v. bolus and the “Dose to achieve patency at 60 min.” value is given as 1-2 mg/kg i.v. bolus.

With “tert-butylbezenesulfonyl-Arg (D-Pipecolic acid)-(12-aminododecanoic acid)-4-aminobutyric acid)-Asp-Phe-Glu-Pro-Ile-Pro-Tyr-OH [BCH-2443]”, in series [1] (Table V, read-out: Ki), the Ki was found to be 1 nM. Moreover, the half-inhibitory concentration (IC50) in series [2] (setting [5]) came out at 12 nM. In series [3], the “Dose to double occlusion time” value is listed as more than 4 mg/kg i.v. bolus and the “Dose to achieve patency at 60 min.” value is recorded as more than 4 mg/kg i.v. bolus.

For the substance “Dansyl-Arg-(L-Pip)-Abu-NH2 [Peptide P430]”, the Ki in series [1] (setting [6]) was 11600 ± 3300 nM. In series [2] (setting [7]), the 50% inhibitory concentration (IC50) was found to be 39100 ± 7200 nM.

With Dansyl-Arg-(D-Tic)-NH2 [Peptide P396], the Ki in series [1] (setting [6]) is 390 ± 20 nM. In addition, the concentration for half-maximal inhibition (IC50) in series [2] (setting [7]) is 820 ± 150 nM.

For Hirudin, in series [4], the half-life was 30 to 60 min.

Take Dansyl-Arg-(L-Pip)-NH2 [Peptide P428]: the Ki in series [1] (setting [6]) was 19100 ± 1300 nM. In series [2] (setting [7]), the half-maximal inhibitory concentration (IC50) stood at 37900 ± 1900 nM.
